The NIST ThermoML archive (doi:10.1021/acs.jced.5b00802)

Legend:
[1] = xn = mol fraction of the nth substance listed; details: 100 kPa, Liquid; for speed of sound: Frequency=3 MHz, Sing-around technique in a fixed-path interferometer; for mass density: Vibrating tube method
[2] = refractive index (Na D-line) (dimensionless); xn = mol fraction of the nth substance listed; details: 100 kPa, Liquid, Standard Abbe refractometry

CCCNCCC [dipropylamine] + CN(C)C=O
Details	mass density, [1] [kg/m3]	refractive index, [2]	speed of sound, [1] [m/s]
293.15 K, x2 = 0.06	745.894	1.40543	1218.2
293.15 K, x2 = 0.1071	752.141	–	1225
293.15 K, x2 = 0.1556	–	1.40725	–
293.15 K, x2 = 0.156	758.933	–	1232.9
293.15 K, x2 = 0.1975	764.87	–	1239.3
293.15 K, x2 = 0.249	772.54	–	1248.1
293.15 K, x2 = 0.2614	–	1.40952	–
293.15 K, x2 = 0.3099	782.194	–	1259.4
293.15 K, x2 = 0.3463	788.151	1.4114	1266.2
293.15 K, x2 = 0.3985	797.199	1.41266	1276.9
293.15 K, x2 = 0.448	806.192	–	1287.6
293.15 K, x2 = 0.4554	–	1.41402	–
293.15 K, x2 = 0.4974	815.656	–	1299.2
293.15 K, x2 = 0.5487	825.989	1.41645	1312
293.15 K, x2 = 0.6018	–	1.41789	–
293.15 K, x2 = 0.6562	849.651	–	1342.1
293.15 K, x2 = 0.7033	–	1.42079	–
293.15 K, x2 = 0.7514	873.097	–	1373.4
293.15 K, x2 = 0.8216	892.212	1.42444	1399.8
293.15 K, x2 = 0.8501	900.523	–	1411.2
293.15 K, x2 = 0.8844	–	1.42653	–
293.15 K, x2 = 0.9025	916.508	–	1433.3
293.15 K, x2 = 0.9486	931.283	1.42882	1453.4
298.15 K, x2 = 0.0626	741.577	1.40259	1196.9
298.15 K, x2 = 0.1083	747.697	1.40358	1204
298.15 K, x2 = 0.1544	754.025	1.40443	1211.2
298.15 K, x2 = 0.2541	768.732	1.40662	1228.1
298.15 K, x2 = 0.3148	778.293	1.40796	1239.3
298.15 K, x2 = 0.3609	786.012	1.40908	1248.3
298.15 K, x2 = 0.4077	794.223	1.41017	1258.2
298.15 K, x2 = 0.4966	810.8	1.41247	1278.5
298.15 K, x2 = 0.5386	819.199	–	1288.9
298.15 K, x2 = 0.6082	833.997	–	1307.9
298.15 K, x2 = 0.6527	844.084	1.41673	1321.1
298.15 K, x2 = 0.7477	867.448	1.4196	1352.4
298.15 K, x2 = 0.8063	883.226	1.42147	1374
298.15 K, x2 = 0.902	911.457	1.42478	1413.1
298.15 K, x2 = 0.9482	926.367	1.42645	1433.5
303.15 K, x2 = 0.0453	734.885	1.39971	1174
303.15 K, x2 = 0.1034	742.55	1.40091	1183
303.15 K, x2 = 0.1963	755.529	1.40293	1198
303.15 K, x2 = 0.2582	764.775	1.40419	1208.8
303.15 K, x2 = 0.3559	780.614	1.40647	1227.6
303.15 K, x2 = 0.4099	790.03	1.40779	1239
303.15 K, x2 = 0.4565	798.539	–	1249.4
303.15 K, x2 = 0.5415	815.193	–	1270.3
303.15 K, x2 = 0.6016	827.909	1.41295	1286.6
303.15 K, x2 = 0.6517	839.209	–	1301.4
303.15 K, x2 = 0.7502	863.388	1.41745	1334
303.15 K, x2 = 0.8498	890.941	1.4207	1372
303.15 K, x2 = 0.9	906.165	1.42246	1393.2
303.15 K, x2 = 0.9498	922.203	1.42417	1415.2
